This data set is described as follows: HILIC, Waters ACQUITY UPLC BEH Amide, 100 × 2.1 mm, 1.7 µm; A: water + 0.125% formic acid + 10 mM ammonium formate; B: 5% water + 95% acetonitrile + 0.125% formic acid + 10 mM ammonium formate; gradient (min/%B) 0/100 2/100 7.7/70 9.5/40 10.25/30 12.75/100 17/100. The note with it: stereoisomer not certain.
Take `Cn1cncc1CC(NC(=O)CCN)C(=O)O` (configuration not stated) [Anserine]: the LC retention time amounted to 9.49 min.

In the case of `CCCCCC=CCC=CCC=CCC=CCCCC(=O)NCCc1ccc(O)c(O)c1` [Arachidonyl dopamine], the LC retention time was 1.14 min.

For the compound `CC(NC(=O)C(N)CCCN=C(N)N)C(=O)O` (configuration not stated) [Arg-Ala], the LC retention time was 9.66 min.

Take `NC(N)=NCCCC(N)C(=O)NCC(=O)O` (configuration not stated) [Arg-Gly]: the LC retention time amounted to 9.85 min.

As for `NC(N)=NCCCC(N)C(=O)N1CCCC1C(=O)O` (configuration not stated) [Arg-Pro], the LC retention time is 9.51 min.

`NC(N)=NCCCC(N)C(=O)NC(CO)C(=O)O` (configuration not stated) [Arg-Ser]: the LC retention time worked out at 9.9 min.

On to `CC(C)C(NC(=O)C(N)CCCN=C(N)N)C(=O)O` (configuration not stated) [Arg-Val], for which the LC retention time came out at 9.3 min.

As to `CC1CNc2c(cccc2S(=O)(=O)NC(CCCN=C(N)N)C(=O)N2CCC(C)CC2C(=O)O)C1` (configuration not stated) [Argatroban], the LC retention time came out at 5.45 min.

As for `NC(N)=NCCCC(N)C(=O)O` (configuration not stated) [Arginine], the LC retention time was 9.53 min.

Take `O=C1CCc2ccc(OCCCCN3CCN(c4cccc(Cl)c4Cl)CC3)cc2N1` [Aripiprazole]: the LC retention time stood at 3.14 min.

For the compound `O=C1OC(C(O)CO)C(O)=C1O` (configuration not stated) [Ascorbic acid], the LC retention time is 1.44 min.

`NC(CC(=O)O)C(=O)NC(CCC(=O)O)C(=O)O` (configuration not stated) [Asp-Glu]: the LC retention time is 9.47 min.

As for `NC(CC(=O)O)C(=O)NC(Cc1ccccc1)C(=O)O` (configuration not stated) [Asp-Phe], the LC retention time came to 8.14 min.

For `NC(=O)CC(N)C(=O)O` (configuration not stated) [Asparagine], the LC retention time is 8.81 min.

On to `NC(CC(=O)O)C(=O)O` (configuration not stated) [Aspartic acid], for which the LC retention time turned out to be 9.33 min.

As to `CNCCC(Oc1ccccc1C)c1ccccc1` (configuration not stated) [Atomoxetine], the LC retention time came to 2.42 min.

`CN1C2CCC1CC(OC(=O)C(CO)c1ccccc1)C2` (configuration not stated) [Atropine]: the LC retention time is 4.32 min.

Regarding `CN1C(=O)COc2c(C(=O)NC3CN4CCC3CC4)cc(Cl)cc21` (configuration not stated) [Azasetron], the LC retention time came to 4.66 min.

In the case of `CN1CCCC(n2nc(Cc3ccc(Cl)cc3)c3ccccc3c2=O)CC1` (configuration not stated) [Azelastine], the LC retention time amounted to 2.95 min.

As to `O=C(O)CCNC(=O)c1ccc(N=Nc2ccc(O)c(C(=O)O)c2)cc1` [Balsalazide], the LC retention time was determined as 4.85 min.

Turning to `CC1CC2C3CCC4=CC(=O)C=CC4(C)C3(Cl)C(O)CC2(C)C1(O)C(=O)CO` (configuration not stated) [Beclomethasone], the LC retention time was 1.26 min.

For the compound `CCN(CC)CCOC(=O)C(O)(c1ccccc1)c1ccccc1` [Benactyzine], the LC retention time amounted to 2.16 min.

Take `CCOC(=O)C(CCc1ccccc1)NC1CCc2ccccc2N(CC(=O)O)C1=O` (configuration not stated) [Benazepril]: the LC retention time turned out to be 1.33 min.

Regarding `COC(=O)C1=C(C)NC(C)=C(C(=O)OC2CCCN(Cc3ccccc3)C2)C1c1cccc([N+](=O)[O-])c1` (configuration not stated) [Benidipine], the LC retention time was determined as 1.46 min.

Regarding `CC(COc1ccccc1Cc1ccccc1)N1CCCCC1` (configuration not stated) [Benproperine], the LC retention time amounted to 1.99 min.

`NC(=O)c1ccccc1` [Benzamide]: the LC retention time is 1.27 min.

Regarding `c1ccc2scnc2c1` [Benzothiazole], the LC retention time is 1.11 min.

On to `CN1C2CCC1C(C(=O)O)C(OC(=O)c1ccccc1)C2` (configuration not stated) [Benzoylecgonine], for which the LC retention time amounted to 3.63 min.

In the case of `CC(Cc1ccccc1)N(C)Cc1ccccc1` (configuration not stated) [Benzphetamine], the LC retention time was determined as 2.03 min.

Take `CC(=O)OCc1ccccc1` [Benzylacetate]: the LC retention time is 8.71 min.

As for `CC(C)CC(NC(=O)C(O)C(N)Cc1ccccc1)C(=O)O` (configuration not stated) [Bestatin], the LC retention time worked out at 5.98 min.

With `C[N+](C)(C)CC(=O)[O-]` [Betaine], the LC retention time is 7.24 min.

For the compound `CC(C)NCC(O)COc1ccc(CCOCC2CC2)cc1` (configuration not stated) [Betaxolol], the LC retention time came to 3.05 min.

For `CC(O)(CS(=O)(=O)c1ccc(F)cc1)C(=O)Nc1ccc(C#N)c(C(F)(F)F)c1` (configuration not stated) [Bicalutamide], the LC retention time came out at 0.99 min.

In the case of `CNCCCCOc1ccccc1Cc1ccccc1` [Bifemelane], the LC retention time amounted to 2.46 min.

Take `c1ccc(-c2ccc(C(c3ccccc3)n3ccnc3)cc2)cc1` (configuration not stated) [Bifonazole]: the LC retention time came to 1.19 min.

`O=C1CC2(CCCC2)CC(=O)N1CCNCC1COc2ccccc2O1` (configuration not stated) [Binospirone]: the LC retention time was found to be 1.8 min.

Turning to `O=C(O)CCCCC1SCC2NC(=O)NC21` (configuration not stated) [Biotin], the LC retention time stood at 2.85 min.

With `CC(C)NCC(O)COc1ccc(COCCOC(C)C)cc1` (configuration not stated) [Bisoprolol], the LC retention time came to 3.47 min.

Take `NC(=O)NC(N)=O` [Biuret]: the LC retention time was determined as 2.73 min.

Turning to `O=C1CN=C(c2ccccn2)c2cc(Br)ccc2N1` [Bromazepam], the LC retention time came out at 1.3 min.

In the case of `COc1cc2c(cc1OC)C13CCN4CC5=CCOC6CC(=O)N2C1C6C5CC43` (configuration not stated) [Brucine], the LC retention time turned out to be 4.57 min.

In the case of `COc1cc(OC)c(C(=O)CCCN2CCCC2)c(OC)c1` [Buflomedil], the LC retention time amounted to 2.34 min.

For the compound `CC(NC(C)(C)C)C(=O)c1cccc(Cl)c1` (configuration not stated) [Bupropion], the LC retention time was found to be 2.22 min.

In the case of `CCCC(=O)O` [Butanoic acid], the LC retention time came to 10.2 min.

As to `CCCC(=O)NCC(=O)O` [Butyrylglycine], the LC retention time amounted to 3.73 min.

With `NCCCCCN` [Cadaverine], the LC retention time was 8.99 min.

`Cn1c(=O)c2c(ncn2C)n(C)c1=O` [Caffeine]: the LC retention time was found to be 1.21 min.

For `c1ccc2c(-c3nccs3)c[nH]c2c1` [Camalexin], the LC retention time is 1.05 min.

With `NC(N)=NOCCC(N)C(=O)O` (configuration not stated) [Canavanine], the LC retention time worked out at 9.42 min.

For `COc1cc(CNC(=O)CCCCC=CC(C)C)ccc1O` [Capsaicin], the LC retention time came to 1 min.

For the compound `NC(=O)N1c2ccccc2C=Cc2ccccc21` [Carbamazepine], the LC retention time worked out at 1.21 min.

Take `NC(CSCC(=O)O)C(=O)O` (configuration not stated) [Carbocysteine]: the LC retention time came out at 9.04 min.

In the case of `CC(Cc1ccc(C(C)C(=O)O)cc1)C(=O)O` (configuration not stated) [Carboxyibuprofen], the LC retention time came out at 1.11 min.

As to `C[N+](C)(C)CC(O)CC(=O)[O-]` (configuration not stated) [Carnitine], the LC retention time amounted to 7.83 min.

As to `NCCC(=O)NC(Cc1cnc[nH]1)C(=O)O` (configuration not stated) [Carnosine], the LC retention time was determined as 9.54 min.

Consider `COc1ccccc1OCCNCC(O)COc1cccc2[nH]c3ccccc3c12` (configuration not stated) [Carvedilol], for which the LC retention time was 3.17 min.

As for `NC(C(=O)NC1C(=O)N2C(C(=O)O)=C(Cl)CSC12)c1ccccc1` (configuration not stated) [Cefaclor], the LC retention time was determined as 5.61 min.

`NC(C(=O)NC1C(=O)N2C(C(=O)O)=C(CSc3cn[nH]n3)CSC12)c1ccc(O)cc1` (configuration not stated) [Cefatrizine]: the LC retention time stood at 7.98 min.

With `C=CC1=C(C(=O)O)N2C(=O)C(NC(=O)C(=NO)c3csc(N)n3)C2SC1` (configuration not stated) [Cefdinir], the LC retention time worked out at 6.94 min.

With `C=CC1=C(C(=O)O)N2C(=O)C(NC(=O)C(=NOCC(=O)O)c3csc(N)n3)C2SC1` (configuration not stated) [Cefixime], the LC retention time turned out to be 7.79 min.

For `COCc1c(C(C)C)nc(C(C)C)c(C=CC(O)CC(O)CC(=O)O)c1-c1ccc(F)cc1` (configuration not stated) [Cerivastatin], the LC retention time amounted to 1.18 min.
